Measurements: patent US10722500B2, “Gossypol 7-N-isatin Schiff base compounds with antitumor activities and a method of preparing the same” (SHAANXI PANLONG PHARMACEUTICAL GROUP LIMITED BY SHARE LTD., priority 2018, dated 2020)
Like-named read-outs stand apart in the source and are kept apart here.

Assays:
[1] = test system: human hepatoma cells (HepG2); assay: MTT tumor cell proliferation inhibition test, HepG2; type: cell-based; details: read-out: Half Inhibitory Concentration IC50 HepG2
Description: (§1) The compounds of the present invention were subjected to tumor cell proliferation inhibition test, and conventional MTT method was used.
(§2) Cell lines: human hepatoma cells (HepG2), human lung cancer cells (A-549), human gastric cancer cells (SGC-7901). The culture medium was DMEM+15% NBS+double antibody.
(§3) Sample solution preparation: after dissolving with DMSO (Merck), PBS (−) was added to obtain 100 μmol/L solution or homogeneous suspension. The solution was diluted with PBS (−) in DMSO to a final concentration of 0.1, 1, 10, 20, 40, 60, 80, 100 μmol/L.
(§4) Gossypol was used as control solution, prepared under the same condition.
(§5) Cell culture: adherent growth Tumor cells were cultured in 1640 medium containing 10% inactivated neonatal bovine serum and penicillin, streptomycin (1 million U/L), placed in carbon dioxide incubator at 37° C., 5% CO2, and saturated humidity. Cells were treated serially passaged 2-3 times. The first culture was washed with PBS 2 times, and digested with trypsin. Fresh culture medium was added evenly, cells were adjusted to a appropriate concentration and transferred into a new culture flask. Cell in an exponential phase were chosen for the tests.
(§6) MTT Assay for Cell Viability and IC50 Determination
(§7) Experimental Principle: Living cells mitochondria in the dehydrogenase can reduce yellow MTT to water-insoluble blue-violet product MT (MTT formazan), deposited in the cells. The amount of production is proportional to the number of living cells. […] DMSO can dissolve blue violet crystals, and the color depth is proportional to the amount contained, so the absorbance measured by the microplate reader can reflect the cell viability.
(§8) Methods: The exponential phase cells were digested and counted and seeded in 96-well plates at a density of 2×10^4/mL at 100 μl per well. After 24 hours of incubation, the cells to be tested were treated with 0.1, 1, 10, 20, 40, 60, 80, 100 μmol/L of the compounds. Each experimental group had 5 wells in each concentration, and the culture medium containing 0.4% DMSO was used as control. After 48 hours, the supernatant was discarded, and 100 μl of MTT ((2-(4,5-dimethyl-2-thiazolyl)-3,5-diphenyl-2H-[…]) (1 mg/mL) was added to each well. After another 4 hours, the supernatant was discarded, and 100 μl of DMSO was added to each well. After mixing, the absorbance was measured at 570 nm using a microplate reader. An IC50 calculation software was used to determine the half inhibitory concentration (IC50).

[2] = test system: human lung cancer cells (A-549); assay: MTT tumor cell proliferation inhibition test, A-549; type: cell-based; details: A549 cells, 48 hours treatment, read-out: Half Inhibitory Concentration IC50 A549
Description: as §1, §2, §3, §4, §5, §6, §7, §8

[3] = test system: HepG2, A-549, SGC-7901 tumor cells; assay: MTT tumor cell proliferation inhibition test, summary over the three cell lines; type: cell-based, human; details: the three cell lines tested
Description: as §1, §2, §3, §4
as §5, with “Cell in an exponential phase were chosen for the tests.” left out
as §7, with “the” for “the cells. The amount of production is proportional to the number of living”
as §8, with “After 24 hours of incubation, the cells to be tested were treated with 0.1, 1, 10, 20, 40, 60, 80, 100 μmol/L of the compounds. Each experimental group had 5 wells in each concentration, and the culture medium containing 0.4% DMSO was used as control.” left out

[4] = test system: human gastric cancer cells (SGC-7901); assay: MTT tumor cell proliferation inhibition test, SGC-7901; type: cell-based; details: SGC-7901 cells, 48 hours treatment, read-out: Half Inhibitory Concentration IC50 SGC-7901
Description: as §1, §2, §3, §4, §5, §6, §7, §8

[5] = HepG2 cells, MTT, 48 hours treatment

IC50 [1, 5] [µM]	IC50 [2] [µM]	IC50 [4] [µM]	melting point [°C]	Structure (SMILES)	antitumor activities (in words) [3]	IC50 ([1]; HepG2, 48 h) [µM]
9.92 ± 0.79	17.4 ± 0.79	13.4 ± 1.51		CCN1C(=O)/C(=N\N=C\c2c(O)c(O)c(C(C)C)c3cc(C)c(-c4c(C)cc5c(C(C)C)c(O)c(O)c(/C=N/N=C6/C(=O)N(CC)c7ncccc76)c5c4O)c(O)c23)c2cccnc21 [Compound 3, (3Z,3′E)-3,3′-(((1E,1′E)-(1,1′,6,6′,7,7′-hexahydroxy-5,5′-diisopropyl-3,3′-dimethyl-[2,2′-binaphthalene]-8,8′-diyl)bis(methanylylidene))bis(hydrazine-2,1-diylidene))bis(1-ethyl-1,3-dihydro-2H-pyrrolo[2,3-b]pyridin-2-one)]	good activities	
> 100	62.9 ± 2.15	> 100	201.9	CON1C(=O)/C(=N\N=C\c2c(O)c(O)c(C(C)C)c3cc(C)c(-c4c(C)cc5c(C(C)C)c(O)c(O)c(/C=N/N=C6/C(=O)N(OC)c7ncccc76)c5c4O)c(O)c23)c2cccnc21 [Compound 6, (3Z,3′E)-3,3′-(((1E,1′E)-(1,1′,6,6′,7,7′-hexahydroxy-5,5′-diisopropyl-3,3′-dimethyl-[2,2′-binaphthalene]-8,8′-diyl)bis(methanylylidene))bis(hydrazine-2,1-diylidene))bis(1-methoxy-1,3-dihydro-2H-pyrrolo[2,3-b]pyridin-2-one)]		
12.5 ± 2.39	11.2 ± 2.26	> 100		Cc1cc2c(C(C)C)c(O)c(O)c(/C=N/N=C3\C(=O)N(C)c4ncccc43)c2c(O)c1-c1c(C)cc2c(C(C)C)c(O)c(O)c(/C=N/N=C3/C(=O)N(C)c4ncccc43)c2c1O [Compound 2, (3Z,3′E)-3,3′-(((1E,1′E)-(1,1′,6,6′,7,7′-hexahydroxy-5,5′-diisopropyl-3,3′-dimethyl-[2,2′-binaphthalene]-8,8′-diyl)bis(methanylylidene))bis(hydrazine-2,1-diylidene))bis(1-methyl-1,3-dihydro-2H-pyrrolo[2,3-b]pyridin-2-one)]	good activities	
> 100	74.1 ± 3.46	> 100	209.1	Cc1cc2c(C(C)C)c(O)c(O)c(/C=N/N=C3\C(=O)N(C(C)C)c4ncccc43)c2c(O)c1-c1c(C)cc2c(C(C)C)c(O)c(O)c(/C=N/N=C3/C(=O)N(C(C)C)c4ncccc43)c2c1O [Compound 4, (3Z,3′E)-3,3′-(((1E,1′E)-(1,1′,6,6′,7,7′-hexahydroxy-5,5′-diisopropyl-3,3′-dimethyl-[2,2′-binaphthalene]-8,8′-diyl)bis(methanylylidene))bis(hydrazine-2,1-diylidene))bis(1-isopropyl-1,3-dihydro-2H-pyrrolo[2,3-b]pyridin-2-one)]		

The remaining lines, values behind:

Structure (SMILES)	IC50 [1, 5] [µM]	IC50 [2] [µM]	IC50 [4] [µM]	melting point [°C]	antitumor activities (in words) [3]	IC50 ([1]; HepG2, 48 h) [µM]
Cc1cc2c(C(C)C)c(O)c(O)c(/C=N/N=C3\C(=O)N(Cc4ccccc4)c4ncccc43)c2c(O)c1-c1c(C)cc2c(C(C)C)c(O)c(O)c(/C=N/N=C3/C(=O)N(Cc4ccccc4)c4ncccc43)c2c1O [Compound 5, (3Z,3′E)-3,3′-(((1E,1′E)-(1,1′,6,6′,7,7′-hexahydroxy-5,5′-diisopropyl-3,3′-dimethyl-[2,2′-binaphthalene]-8,8′-diyl)bis(methanylylidene))bis(hydrazine-2,1-diylidene))bis(1-benzyl-1,3-dihydro-2H-pyrrolo[2,3-b]pyridin-2-one)]	7.94 ± 0.85	10.1 ± 1.33	12.3 ± 1.43		excellent antitumor activities	
Cc1cc2c(C(C)C)c(O)c(O)c(C=O)c2c(O)c1-c1c(C)cc2c(C(C)C)c(O)c(O)c(C=O)c2c1O [Gossypol]						955 ± 0.41
Cc1cc2c(C(C)C)c(O)c(O)c(/C=N/N=C3\C(=O)Nc4ncccc43)c2c(O)c1-c1c(C)cc2c(C(C)C)c(O)c(O)c(/C=N/N=C3/C(=O)Nc4ncccc43)c2c1O [Compound 1, (3Z,3′E)-3,3′-(((1E,1′E)-(1,1′,6,6′,7,7′-hexahydroxy-5,5′-diisopropyl-3,3′-dimethyl-[2,2′-binaphthalene]-8,8′-diyl)bis(methanylylidene))bis(hydrazine-2,1-diylidene))bis(1,3-dihydro-2H-pyrrolo[2,3-b]pyridin-2-one)]	> 100	> 100	> 100	186.5		
